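Following 48 hours of exposure in 96-well plates, responses at five concentrations were used to interpolate endpoints linearly. The concentration for 50% growth inhibition is given as GI50.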 The source made the active and inactive calls. Cut-off read from the data, not from the text of the source: active = GI50 up to about 1.1 µM and inactive = higher.
What was measured:
Assay in all cases: DTP human tumour cell line panel, 48 h
ACHN = test system: ACHN
CAKI-1 = test system: CAKI-1
CCRF-CEM = test system: CCRF-CEM
HOP-62 = test system: HOP-62
HOP-92 = test system: HOP-92
HT-29 = test system: HT-29
Hs-578T = test system: Hs-578T
KM12 = test system: KM12
LOX IMVI = test system: LOX IMVI
MOLT-4 = test system: MOLT-4
NCI-H23 = test system: NCI-H23
NCI-H460 = test system: NCI-H460
OVCAR-4 = test system: OVCAR-4
PC-3 = test system: PC-3
RXF 393 = test system: RXF 393
SF-268 = test system: SF-268
SR = test system: SR
TK-10 = test system: TK-10
UACC-62 = test system: UACC-62
UO-31 = test system: UO-31

SMILES	GI50 (ACHN)	GI50 (CAKI-1)	GI50 (CCRF-CEM)	GI50 (HOP-62)	GI50 (HOP-92)	GI50 (HT-29)	GI50 (Hs-578T)	GI50 (KM12)	GI50 (LOX IMVI)	GI50 (MOLT-4)	GI50 (NCI-H23)	GI50 (NCI-H460)	GI50 (OVCAR-4)	GI50 (PC-3)	GI50 (RXF 393)	GI50 (SF-268)	GI50 (SR)	GI50 (TK-10)	GI50 (UACC-62)	GI50 (UO-31)
CC/C(Cl)=N\OC(=O)Nc1ccc(F)c(Cl)c1	13.8 µM (inactive)	5.21 µM (inactive)	2.04 µM (inactive)	19 µM (inactive)	4.38 µM (inactive)	24 µM (inactive)	39.4 µM (inactive)	17.2 µM (inactive)	4.91 µM (inactive)	1.48 µM (inactive)	21.2 µM (inactive)	17.7 µM (inactive)	14.5 µM (inactive)	16 µM (inactive)	12.1 µM (inactive)	15.7 µM (inactive)	4.99 µM (inactive)	17.5 µM (inactive)	20.6 µM (inactive)	18.3 µM (inactive)
c1ccc2/c3[nH]/c(c2c1)=N\c1ccc(cc1)-c1nc2ccc(cc2o1)/N=c1/[nH]/c(c2ccccc12)=N/c1ccc2nc(oc2c1)-c1ccc(cc1)\N=3	16.6 µM (inactive)	35.4 µM (inactive)	2.26 µM (inactive)	62.4 µM (inactive)	37.3 µM (inactive)	33.4 µM (inactive)	> 100 µM (inactive)	35.1 µM (inactive)	29.4 µM (inactive)	14.9 µM (inactive)	43.4 µM (inactive)	7.38 µM (inactive)	–	29.9 µM (inactive)	43.2 µM (inactive)	15.3 µM (inactive)	20.3 µM (inactive)	> 100 µM (inactive)	51.4 µM (inactive)	15.9 µM (inactive)
O=C(O)c1ccc(CI)cc1	15.7 µM (inactive)	13.7 µM (inactive)	9.57 µM (inactive)	20.3 µM (inactive)	15.8 µM (inactive)	15.1 µM (inactive)	41 µM (inactive)	–	–	15.3 µM (inactive)	12.7 µM (inactive)	15.6 µM (inactive)	14.3 µM (inactive)	15.1 µM (inactive)	17.7 µM (inactive)	15.4 µM (inactive)	21.6 µM (inactive)	–	10.8 µM (inactive)	18 µM (inactive)
Cc1cc(O)c2c3c(ccc2c1)C(=O)c1c(O)cccc1C3=O [TETRANGULOL]	17.7 µM (inactive)	> 100 µM (inactive)	30.1 µM (inactive)	16.3 µM (inactive)	> 100 µM (inactive)	8.15 µM (inactive)	> 40.9 µM (inactive)	3.88 µM (inactive)	5.57 µM (inactive)	5.48 µM (inactive)	3.98 µM (inactive)	0.653 µM (active)	4.57 µM (inactive)	16.1 µM (inactive)	> 100 µM (inactive)	5.66 µM (inactive)	1.36 µM (inactive)	54.5 µM (inactive)	1.55 µM (inactive)	> 100 µM (inactive)
COc1ccc(/N=C/C=C/Nc2ccc(OC)cc2)cc1	15.6 µM (inactive)	3.78 µM (inactive)	6.28 µM (inactive)	5.78 µM (inactive)	15.3 µM (inactive)	2.88 µM (inactive)	17.5 µM (inactive)	4.54 µM (inactive)	2.44 µM (inactive)	4.51 µM (inactive)	19.6 µM (inactive)	13.3 µM (inactive)	5.24 µM (inactive)	12 µM (inactive)	7.67 µM (inactive)	7.43 µM (inactive)	3.85 µM (inactive)	11.8 µM (inactive)	13.7 µM (inactive)	5.64 µM (inactive)
CCC/N=C/c1c(O)c(O)c(C(C)C)c2cc(C)c(-c3c(C)cc4c(C(C)C)c(O)c(O)c(/C=N/CCC)c4c3O)c(O)c12	3.99 µM (inactive)	25.8 µM (inactive)	1.54 µM (inactive)	10.2 µM (inactive)	2.49 µM (inactive)	4.04 µM (inactive)	69.3 µM (inactive)	3.45 µM (inactive)	6.04 µM (inactive)	3.41 µM (inactive)	6.1 µM (inactive)	4.38 µM (inactive)	4.38 µM (inactive)	2.48 µM (inactive)	3.54 µM (inactive)	6.92 µM (inactive)	3.46 µM (inactive)	> 100 µM (inactive)	5.78 µM (inactive)	6.3 µM (inactive)
Clc1ccc(CCNC2(c3cc4ccccc4s3)CCCCC2)cc1Cl	26.2 µM (inactive)	29.5 µM (inactive)	12.9 µM (inactive)	28.2 µM (inactive)	3.84 µM (inactive)	10 µM (inactive)	42.5 µM (inactive)	21.8 µM (inactive)	18.5 µM (inactive)	13.8 µM (inactive)	26.5 µM (inactive)	14.8 µM (inactive)	33.3 µM (inactive)	43.2 µM (inactive)	17.7 µM (inactive)	53 µM (inactive)	11.9 µM (inactive)	20.8 µM (inactive)	17.7 µM (inactive)	16.6 µM (inactive)
CN(C)c1nc(N)nc(CCl)n1	15.8 µM (inactive)	5.14 µM (inactive)	17.4 µM (inactive)	17.5 µM (inactive)	20.7 µM (inactive)	41.1 µM (inactive)	25.4 µM (inactive)	28.6 µM (inactive)	7.87 µM (inactive)	18.8 µM (inactive)	24.5 µM (inactive)	32.7 µM (inactive)	19.6 µM (inactive)	74.8 µM (inactive)	26.5 µM (inactive)	27.2 µM (inactive)	24.9 µM (inactive)	72.8 µM (inactive)	18.9 µM (inactive)	12.4 µM (inactive)
O=C1CC(C(=O)O)Cc2c(Br)ccc(O)c21 (configuration not stated)	> 100 µM (inactive)	> 100 µM (inactive)	> 100 µM (inactive)	> 100 µM (inactive)	29 µM (inactive)	> 100 µM (inactive)	> 100 µM (inactive)	> 100 µM (inactive)	> 100 µM (inactive)	> 100 µM (inactive)	> 100 µM (inactive)	> 100 µM (inactive)	> 100 µM (inactive)	> 100 µM (inactive)	> 100 µM (inactive)	> 100 µM (inactive)	43.7 µM (inactive)	> 100 µM (inactive)	> 100 µM (inactive)	> 100 µM (inactive)
CCCC(=O)Nc1cc(/C=C/C(=O)N2CC(CCl)c3c2cc(O)c2[nH]cc(C)c32)n(C)c1 (configuration not stated)	< 2.5e-05 µM (active)	< 2.5e-05 µM (active)	< 2.5e-05 µM (active)	< 2.5e-05 µM (active)	< 2.5e-05 µM (active)	< 2.5e-05 µM (active)	< 2.5e-05 µM (active)	< 2.5e-05 µM (active)	< 2.5e-05 µM (active)	< 2.5e-05 µM (active)	< 2.5e-05 µM (active)	< 2.5e-05 µM (active)	< 2.5e-05 µM (active)	< 2.5e-05 µM (active)	< 2.5e-05 µM (active)	< 2.5e-05 µM (active)	< 2.5e-05 µM (active)	< 2.5e-05 µM (active)	< 2.5e-05 µM (active)	< 2.5e-05 µM (active)
O=C1CS(=O)(=O)C(c2cccc(Oc3ccccc3)c2)N1C1CC1 (configuration not stated)	31.2 µM (inactive)	0.045 µM (active)	60.1 µM (inactive)	–	23.4 µM (inactive)	32.7 µM (inactive)	> 100 µM (inactive)	31.4 µM (inactive)	41.7 µM (inactive)	30.4 µM (inactive)	28 µM (inactive)	43.4 µM (inactive)	29.2 µM (inactive)	25.8 µM (inactive)	22 µM (inactive)	64.7 µM (inactive)	31.6 µM (inactive)	44.7 µM (inactive)	31.6 µM (inactive)	27.6 µM (inactive)
CCOC(=O)C1=NN(c2ccc(C)cc2)C2(c3ccccc3)C=C(c3ccccc3)N(C)CCN12 (configuration not stated)	> 100 µM (inactive)	> 100 µM (inactive)	> 100 µM (inactive)	> 100 µM (inactive)	> 100 µM (inactive)	> 100 µM (inactive)	> 100 µM (inactive)	48.5 µM (inactive)	> 100 µM (inactive)	> 100 µM (inactive)	> 100 µM (inactive)	–	> 100 µM (inactive)	> 100 µM (inactive)	> 100 µM (inactive)	> 100 µM (inactive)	35.2 µM (inactive)	> 100 µM (inactive)	> 100 µM (inactive)	> 100 µM (inactive)
Cn1c2ccccc2c(=S)c2ccccc21	> 100 µM (inactive)	> 100 µM (inactive)	> 100 µM (inactive)	> 100 µM (inactive)	> 100 µM (inactive)	> 100 µM (inactive)	> 100 µM (inactive)	> 100 µM (inactive)	> 100 µM (inactive)	> 100 µM (inactive)	> 100 µM (inactive)	> 100 µM (inactive)	–	> 100 µM (inactive)	> 100 µM (inactive)	> 100 µM (inactive)	> 100 µM (inactive)	> 100 µM (inactive)	> 100 µM (inactive)	> 100 µM (inactive)
Cc1nnc(CC#N)n1NC(=O)CC#N	> 100 µM (inactive)	> 100 µM (inactive)	> 100 µM (inactive)	> 100 µM (inactive)	> 100 µM (inactive)	> 100 µM (inactive)	> 100 µM (inactive)	> 100 µM (inactive)	> 100 µM (inactive)	> 100 µM (inactive)	> 100 µM (inactive)	> 100 µM (inactive)	–	> 100 µM (inactive)	> 100 µM (inactive)	> 100 µM (inactive)	> 100 µM (inactive)	> 100 µM (inactive)	> 100 µM (inactive)	> 100 µM (inactive)
